Measurements as given in patent publication US20180035670A1, “ACTIVE COMPOUND COMBINATIONS” (BAYER CROPSCIENCE AKTIENGESELLSCHAFT, priority 2015, published 2018).
Several values for one entry are separate records, joined by “and”; a condition that tells them apart may be missing. Equal entries are not always repeated. Where two headings read alike, the source gives them in different places.

How the values were obtained:
[1] = tested on: Phakopsora pachyrhizi; test: in vivo preventive test on Phakopsora test (soybeans); details: 7 days after inoculation; for pest or weed control at 0.5 ppm: 0.5 ppm a.i.; for pest or weed control at 1 ppm: 1 ppm a.i.; for pest or weed control at 0.25 ppm: 0.25 ppm a.i.
[2] = tested on: Botrytis cinerea; test: in vivo preventive test on Botrytis test (beans); details: 2 days after inoculation
Description: After the spray coating has dried on, 2 small pieces of agar covered with growth of Botrytis cinerea are placed on each leaf.
The inoculated plants are placed in a darkened chamber at 20° C. and a relative atmospheric humidity of 100%.
2 days after the inoculation, the size of the lesions on the leaves is evaluated.

[3] = tested on: Venturia inaequalis; test: in vivo preventive test on Venturia test (apples); details: for pest or weed control at 10 ppm: read-out: Efficacy in % found, 10 ppm a.i., apples, 10 days after inoculation; for pest or weed control at 0.25 ppm: read-out: Efficacy in % found, 0.25 ppm a.i., apples, 10 days after inoculation; for pest or weed control at 0.5 ppm: read-out: Efficacy in % found, 0.5 ppm a.i., apples, 10 days after inoculation; for pest or weed control at 2 ppm: read-out: Efficacy in % found, 2 ppm a.i., apples, 10 days after inoculation; for Efficacy in % found: apples, 10 days after inoculation; for pest or weed control at 1 ppm: read-out: Efficacy in % found, 1 ppm a.i., apples, 10 days after inoculation
Description: After the spray coating has dried on, the plants are inoculated with an aqueous conidia suspension of the causal agent of apple scab (Venturia inaequalis) and then remain for 1 day in an incubation cabinet at approximately 20° C. and a relative atmospheric humidity of 100%. The plants are then placed in a greenhouse at approximately 21° C. and a relative atmospheric humidity of approximately 90%.
The test is evaluated 10 days after the inoculation.

[4] = tested on: Alternaria solani; test: in vivo preventive test on Alternaria test (tomatoes); details: 3 days after inoculation
Description: After the spray coating has dried on, the plants are inoculated with an aqueous spore suspension of Alternaria solani. The plants are then placed in an incubation cabinet at approximately 20° C. and a relative atmospheric humidity of 100%.
The test is evaluated 3 days after the inoculation.

[5] = tested on: Phytophthora infestans; type: in vivo; details: tomatoes, 3 days after inoculation
[6] = tested on: Sphaerotheca fuliginea; test: in vivo preventive test on Sphaerotheca test (cucumbers); details: 7 days after inoculation
Description: After the spray coating has dried on, the plants are inoculated with an aqueous spore suspension of Sphaerotheca fuliginea. The plants are then placed in a greenhouse at approximately 23° C. and a relative atmospheric humidity of approximately 70%.
The test is evaluated 7 days after the inoculation.

[7] = Phakopsora pachyrhizi, 168 h, read-out: Efficacy in % found

| Compound | pest or weed control at 0.5 ppm [1, 7] [%] | pest or weed control at 1 ppm [1, 7] [%] | Efficacy in % found ([5]; 20 ppm a.i.) [%] | Efficacy in % found ([2]; 1 ppm a.i.) | pest or weed control at 0.25 ppm ([3]; Venturia inaequalis, 240 h) [%] | pest or weed control at 0.5 ppm ([3]; Venturia inaequalis, 240 h) [%] | Efficacy in % found ([4]; 0.25 ppm a.i.) [%] | Efficacy in % found ([4]; 0.5 ppm a.i.) | Efficacy in % found ([4]; 1 ppm a.i.) | Efficacy in % found ([4]; 2 ppm a.i.) [%] | pest or weed control at 0.25 ppm [1, 7] [%] | Efficacy in % found ([2]; 0.25 ppm a.i.) [%] | Efficacy in % found ([2]; 0.5 ppm a.i.) [%] | Efficacy in % found ([5]; 10 ppm a.i.) [%] | also measured |
| --- | --- | --- | --- | --- | --- | --- | --- | --- | --- | --- | --- | --- | --- | --- | --- |
| COC(=O)Nc1nc2ccccc2[nH]1 [4.002, carbendazim, reference compound] |  |  |  |  |  |  |  |  |  |  |  |  |  |  | pest or weed control at 1.25 ppm ([1]; Phakopsora pachyrhizi, 168 h, 1.25 ppm a.i., read-out: Efficacy in % found): 0%; pest or weed control at 2.5 ppm ([1]; Phakopsora pachyrhizi, 168 h, 2.5 ppm a.i., read-out: Efficacy in % found): 0%; Efficacy in % found ([2]; 5 ppm a.i.): 0%; pest or weed control at 5 ppm ([3]; Venturia inaequalis, 240 h, read-out: Efficacy in % found, 5 ppm a.i., apples, 10 days after inoculation): 8%; pest or weed control at 10 ppm ([3]; Venturia inaequalis, 240 h): 21%; Efficacy in % found ([4]; 10 ppm a.i.): 0% |
| CCC1CC(C)(C)c2cccc(NC(=O)c3cccnc3C(F)F)c21 (centres unmarked) [(I-3), 2-(difluoromethyl)-N-(3-ethyl-1,1-dimethyl-2,3-dihydro-1H-inden-4-yl)nicotinamide] | 65 | 84 | 4 | 15% | 4 | 18 | 15 | 23% | 40% | 35 |  |  |  |  | Efficacy in % found ([5]; 5 ppm a.i.): 28%; Efficacy in % found ([2]; 2 ppm a.i.): 23%; pest or weed control at 2 ppm ([3]; Venturia inaequalis, 240 h): 11%; Efficacy in % found ([6]; 0.5 ppm a.i.): 0%; Efficacy in % found ([6]; 1 ppm a.i.): 0% |
| CC1(C)N=C(c2cnc3ccccc3c2)c2ccccc2C1(F)F [15.090, 3-(4,4-difluoro-3,3-dimethyl-3,4-dihydroisoquinolin-1-yl)quinoline] | 0 | 0 |  | 28% | 19 |  |  |  |  |  | 0 | 0 | 0 |  |  |
| mancozeb [5.023, reference compound] |  |  |  |  |  |  |  |  |  |  |  |  |  |  | Efficacy in % found ([1]; 6.25 ppm a.i.): 24%; Efficacy in % found ([1]; 12.5 ppm a.i.): 41%; Efficacy in % found ([2]; 25 ppm a.i.): 0%; Efficacy in % found ([2]; 50 ppm a.i.): 0%; Efficacy in % found ([3]; 25 ppm a.i.): 31%; Efficacy in % found ([3]; 50 ppm a.i.): 34%; Efficacy in % found ([4]; 50 ppm a.i.): 0% |
| propineb [5.029, reference compound] |  |  |  |  |  |  |  |  |  |  |  |  |  |  | Efficacy in % found ([1]; 6.25 ppm a.i.): 0%; Efficacy in % found ([1]; 12.5 ppm a.i.): 0%; Efficacy in % found ([2]; 25 ppm a.i.): 0%; Efficacy in % found ([3]; 12.5 ppm a.i.): 11%; Efficacy in % found ([3]; 25 ppm a.i.): 94%; Efficacy in % found ([4]; 50 ppm a.i.): 0% |
| CC[C@@H]1CC(C)(C)c2cccc(NC(=O)c3cccnc3C(F)F)c21 [(I-4), 2-(difluoromethyl)-N-[(3R)-3-ethyl-1,1-dimethyl-2,3-dihydro-1H-inden-4-yl]nicotinamide] | 85 |  | 7 |  | 15 |  | 8 | 40% | 30% and 55% | 35 | 65 | 0 | 8 | 10 |  |
| O[C@@H](c1cccnc1)c1c(-c2ccc(Cl)cc2F)noc1-c1ccc(F)cc1F [1.104, (S)-[3-(4-chloro-2-fluorophenyl)-5-(2,4-difluorophenyl)-1,2-oxazol-4-yl](pyridin-3-yl)methanol] |  | 0 |  | 26% | 0 | 11 | 0 | 0% | 0% |  | 0 |  | 15 |  | pest or weed control at 1 ppm ([3]; Venturia inaequalis, 240 h): 19%; Efficacy in % found ([6]; 0.25 ppm a.i.): 0%; Efficacy in % found ([6]; 1 ppm a.i.): 0% |
| CC(O)(Cn1cncn1)c1ccc(Oc2ccc(Cl)cc2)cc1C(F)(F)F (centres unmarked) [1.084, 2-[4-(4-chlorophenoxy)-2-(trifluoromethyl)phenyl]-1-(1H-1,2,4-triazol-1-yl)propan-2-ol] | 8 | 0 |  |  | 11 | 34 | 8 | 8% and 0% | 15% |  |  |  |  |  | pest or weed control at 1 ppm ([3]; Venturia inaequalis, 240 h): 31%; Efficacy in % found ([6]; 0.5 ppm a.i.): 0% |
| N#Cc1c(Cl)c(Cl)c(Cl)c(C#N)c1Cl [5.004, chlorothalonil, reference compound] |  |  |  |  |  |  |  |  |  |  |  |  |  |  | pest or weed control at 6.25 ppm ([1]; Phakopsora pachyrhizi, 168 h, 6.25 ppm a.i., read-out: Efficacy in % found): 18%; pest or weed control at 12.5 ppm ([1]; Phakopsora pachyrhizi, 168 h, 12.5 ppm a.i., read-out: Efficacy in % found): 0%; pest or weed control at 25 ppm ([3]; Venturia inaequalis, 240 h, read-out: Efficacy in % found, 25 ppm a.i., apples, 10 days after inoculation): 36%; Efficacy in % found ([4]; 50 ppm a.i.): 0% |
| O=[N+]([O-])c1cc(C(F)(F)F)c(Cl)c([N+](=O)[O-])c1Nc1ncc(C(F)(F)F)cc1Cl [14.004, fluazinam, reference compound] |  |  | 28 |  |  |  |  |  |  |  |  |  |  | 45 | pest or weed control at 5 ppm ([1]; Phakopsora pachyrhizi, 168 h, 5 ppm a.i., read-out: Efficacy in % found): 0%; Efficacy in % found ([2]; 5 ppm a.i.): 63%; pest or weed control at 10 ppm ([3]; Venturia inaequalis, 240 h): 0%; Efficacy in % found ([4]; 10 ppm a.i.): 0% |
| CCC[C@@H]1CC(C)(C)c2cccc(NC(=O)c3cccnc3C(F)F)c21 [(I-6), 2-(difluoromethyl)-N-[(3R)-1,1-dimethyl-3-propyl-2,3-dihydro-1H-inden-4-yl]nicotinamide] |  |  | 8 | 19% and 11% |  | 0 | 0 | 0% | 8% and 15% | 51 | 75 | 15 | 0 | 14 | Efficacy in % found ([5]; 5 ppm a.i.): 21%; pest or weed control at 2 ppm ([3]; Venturia inaequalis, 240 h): 15% |
| CCCC1CC(C)(C)c2cccc(NC(=O)c3cccnc3C(F)F)c21 (centres unmarked) [(I-5), 2-(difluoromethyl)-N-(1,1-dimethyl-3-propyl-2,3-dihydro-1H-inden-4-yl)nicotinamide] |  |  | 4 |  | 8 | 0 |  |  | 0% | 8 | 60 | 0 | 0 | 0 | Efficacy in % found ([5]; 5 ppm a.i.): 17%; pest or weed control at 2 ppm ([3]; Venturia inaequalis, 240 h): 0% |
